Data reported in US20230073512A1, “MODULATORS OF CULLIN 3 ADAPTOR KBTBD4 AS ANTI-CANCER COMPOUNDS” (UNIVERSITE DE MONTREAL, priority 2019, published 2023).
Read-outs that look alike come from different tables or passages of the source.

How the values were obtained:
[1] = tested on: CB; assay: Cell proliferation, CB sample of Table 2; details: read-out: Antineoplastic effect on cell proliferation, IC50
[2] = tested on: AML samples; assay: Cell proliferation of cancerous samples from patients
[3] = tested on: SKNO; assay: Cell proliferation of cancerous cell lines; assay type: cell-based; details: SKNO cell line; read-out: Antineoplastic effect on cell proliferation, IC50
[4] = tested on: KBM7; assay: Cell proliferation of cancerous cell lines; assay type: cell-based; details: KBM-7; KBM7 cell line; read-out: Antineoplastic effect on cell proliferation, IC50
[5] = tested on: MUTZ-8; assay: Cell proliferation of cancerous cell lines; assay type: cell-based; details: MUTZ-8 cell line; read-out: Antineoplastic effect on cell proliferation, IC50
[6] = tested on: UT-7; assay: Cell proliferation of cancerous cell lines; assay type: cell-based; details: Homo sapiens, UT7; UT-7 cell line; read-out: Antineoplastic effect on cell proliferation, IC50
[7] = tested on: EOL1; assay: Cell proliferation of cancerous cell lines; assay type: cell-based; details: Homo sapiens; EOL1 cell line; read-out: Antineoplastic effect on cell proliferation, IC50
[8] = tested on: MOLM-13; assay: Cell proliferation of cancerous cell lines; assay type: cell-based; details: Homo sapiens; MOLM-13 cell line; read-out: Antineoplastic effect on cell proliferation, IC50
[9] = tested on: NB-4; assay: Cell proliferation of cancerous cell lines; assay type: cell-based; details: Homo sapiens; NB-4 cell line; read-out: Antineoplastic effect on cell proliferation, IC50
[10] = tested on: MUTZ-2; assay: Cell proliferation of cancerous cell lines; assay type: cell-based; details: MUTZ-2 cell line; read-out: Antineoplastic effect on cell proliferation, IC50
[11] = tested on: AML3; assay: Cell proliferation of cancerous cell lines; assay type: cell-based; details: AML3 cell line; read-out: Antineoplastic effect on cell proliferation, IC50
[12] = tested on: AML4; assay: Cell proliferation of cancerous cell lines; assay type: cell-based; details: AML4 cell line; read-out: Antineoplastic effect on cell proliferation, IC50
[13] = tested on: KG1; assay: Cell proliferation of cancerous cell lines; assay type: cell-based; details: Homo sapiens, KG-1; KG1 cell line; read-out: Antineoplastic effect on cell proliferation, IC50
[14] = tested on: KG1a; assay: Cell proliferation of cancerous cell lines; assay type: cell-based; details: Homo sapiens, KG-1a; KG1a cell line; read-out: Antineoplastic effect on cell proliferation, IC50
[15] = tested on: HL-60; assay: Cell proliferation of cancerous cell lines; assay type: cell-based; details: Homo sapiens; HL-60 cell line; read-out: Antineoplastic effect on cell proliferation, IC50
[16] = tested on: MonoMac; assay: Cell proliferation of cancerous cell lines; assay type: cell-based; details: MonoMac cell line; read-out: Antineoplastic effect on cell proliferation, IC50
[17] = tested on: AML5; assay: Cell proliferation of cancerous cell lines; assay type: cell-based; details: AML5 cell line; read-out: Antineoplastic effect on cell proliferation, IC50
[18] = tested on: KU-812; assay: Cell proliferation of cancerous cell lines; assay type: cell-based; details: Homo sapiens, KU812; KU-812 cell line; read-out: Antineoplastic effect on cell proliferation, IC50
[19] = tested on: Z-138; assay: Cell proliferation of cancerous cell lines; assay type: cell-based; details: Homo sapiens; Z-138 cell line; read-out: Antineoplastic effect on cell proliferation, IC50
[20] = tested on: LY-1; assay: Cell proliferation of cancerous cell lines; assay type: cell-based; details: Ly1; LY-1 cell line; read-out: Antineoplastic effect on cell proliferation, IC50
[21] = in vivo; details: mouse
Procedure: PK assays were performed in mice (n=3). […] The following pharmacokinetic parameters were calculated.
The compounds were orally administered at 20 mg/kg and plasma samples were collected at 15, 30 minutes and 1, 2, 4, 6 and 8 hours after administration. The following pharmacokinetic parameters were calculated.

[22] = read-out: Antineoplastic effect on cell proliferation, IC50, AML sample 04H063
[23] = read-out: Antineoplastic effect on cell proliferation, IC50, AML sample 05H094
[24] = read-out: Antineoplastic effect on cell proliferation, IC50, AML sample 05H149
[25] = read-out: Antineoplastic effect on cell proliferation, IC50, AML sample 06H045
[26] = read-out: Antineoplastic effect on cell proliferation, IC50, AML sample 06H088
[27] = read-out: Antineoplastic effect on cell proliferation, IC50, AML sample 06H117
[28] = read-out: Antineoplastic effect on cell proliferation, IC50, AML sample 07H005
[29] = read-out: Antineoplastic effect on cell proliferation, IC50, AML sample 07H038
[30] = read-out: Antineoplastic effect on cell proliferation, IC50, AML sample 07H045
[31] = read-out: Antineoplastic effect on cell proliferation, IC50, AML sample 07H125
[32] = read-out: Antineoplastic effect on cell proliferation, IC50, AML sample 07H135
[33] = read-out: Antineoplastic effect on cell proliferation, IC50, AML sample 07H151
[34] = read-out: Antineoplastic effect on cell proliferation, IC50, AML sample 08H018
[35] = read-out: Antineoplastic effect on cell proliferation, IC50, AML sample 09H010
[36] = read-out: Antineoplastic effect on cell proliferation, IC50, AML sample 09H046
[37] = read-out: Antineoplastic effect on cell proliferation, IC50, AML sample 09H079
[38] = read-out: Antineoplastic effect on cell proliferation, IC50, AML sample 09H115
[39] = read-out: Antineoplastic effect on cell proliferation, IC50, AML sample 10H022
[40] = read-out: Antineoplastic effect on cell proliferation, IC50, AML sample 10H127
[41] = read-out: Antineoplastic effect on cell proliferation, IC50, AML sample 11H002
[42] = read-out: Antineoplastic effect on cell proliferation, IC50, AML sample 11H046
[43] = read-out: Antineoplastic effect on cell proliferation, IC50, AML sample 11H103
[44] = read-out: Antineoplastic effect on cell proliferation, IC50, AML sample 12H045
[45] = read-out: Antineoplastic effect on cell proliferation, IC50, AML sample 12H058
[46] = read-out: Antineoplastic effect on cell proliferation, IC50, AML sample 12H096
[47] = read-out: Antineoplastic effect on cell proliferation, IC50, AML sample 12H106
[48] = read-out: Antineoplastic effect on cell proliferation, IC50, AML sample 12H151
[49] = read-out: Antineoplastic effect on cell proliferation, IC50, AML sample 13H100
[50] = read-out: Antineoplastic effect on cell proliferation, IC50, AML sample 13H150

## COC(=O)c1ccc2[nH]c3nc(Cc4ccccc4)nc(NCCCN4CCCCC4)c3c2c1 [UM134]
[1]
  IC50: 1 to 10 µM
[2]; [22]
  IC50: 1 to 10 µM
[2]; [23]
  IC50: 1 to 10 µM
[2]; [24]
  IC50: 1 to 10 µM
[2]; [25]
  IC50: 1 to 10 µM
[2]; [26]
  IC50: 1 to 10 µM
[2]; [27]
  IC50: 1 to 10 µM
[2]; [28]
  IC50: 1 to 10 µM
[2]; [29]
  IC50: 1 to 10 µM
[2]; [30]
  IC50: 1 to 10 µM
[2]; [31]
  IC50: 1 to 10 µM
[2]; [32]
  IC50: 1 to 10 µM
[2]; [33]
  IC50: 1 to 10 µM
[2]; [34]
  IC50: 1 to 10 µM
[2]; [35]
  IC50: 1 to 10 µM
[2]; [36]
  IC50: 1 to 10 µM
[2]; [37]
  IC50: 1 to 10 µM
[2]; [38]
  IC50: 1 to 10 µM
[2]; [39]
  IC50: 1 to 10 µM
[2]; [40]
  IC50: 1 to 10 µM
[2]; [41]
  IC50: 1 to 10 µM
[2]; [42]
  IC50: 1 to 10 µM
[2]; [43]
  IC50: 1 to 10 µM
[2]; [44]
  IC50: 1 to 10 µM
[2]; [45]
  IC50: 1 to 10 µM
[2]; [46]
  IC50: 1 to 10 µM
[2]; [47]
  IC50: 1 to 10 µM
[2]; [48]
  IC50: 1 to 10 µM
[2]; [49]
  IC50: 1 to 10 µM
[2]; [50]
  IC50: 1 to 10 µM

## Cn1nnc(-c2ccc3c(c2)[nH]c2ncnc(NCCCN4CCCCC4)c23)n1 [UM681]
[3]
  IC50: 1 to 10 µM
[4]
  IC50: > 10 µM
[5]
  IC50: > 10 µM
[6]
  IC50: > 10 µM
[7]
  IC50: 0.25 to 1 µM
[8]
  IC50: 0.25 to 1 µM
[9]
  IC50: 1 to 10 µM
[10]
  IC50: 1 to 10 µM
[11]
  IC50: 1 to 10 µM
[12]
  IC50: 0.25 to 1 µM
[13]
  IC50: 1 to 10 µM
[14]
  IC50: 1 to 10 µM
[15]
  IC50: 1 to 10 µM
[16]
  IC50: 1 to 10 µM
[17]
  IC50: 1 to 10 µM
[18]
  IC50: 1 to 10 µM
[19]
  IC50: 1 to 10 µM
[20]
  IC50: > 10 µM
[21]; female, po, 20 mg/kg
  bioavailability: 39%
[21]; male, po, 20 mg/kg
  bioavailability: 31%
[21]; iv, 1 mg/kg
  Vd: 14.3 L/kg
  clearance: 109 mL/min/kg
  half-life: 1.9 h
[21]; po, 20 mg/kg
  AUC: 2.45 µM·h
  Cmax: 200 nM
  Tmax: 4 h
[1]
  IC50: 1 to 10 µM
[2]; [22]
  IC50: 1 to 10 µM
[2]; [23]
  IC50: 1 to 10 µM
[2]; [24]
  IC50: 1 to 10 µM
[2]; [25]
  IC50: 1 to 10 µM
[2]; [26]
  IC50: > 10 µM
[2]; [27]
  IC50: 1 to 10 µM
[2]; [28]
  IC50: 1 to 10 µM
[2]; [29]
  IC50: 1 to 10 µM
[2]; [30]
  IC50: > 10 µM
[2]; [31]
  IC50: 1 to 10 µM
[2]; [32]
  IC50: 1 to 10 µM
[2]; [33]
  IC50: > 10 µM
[2]; [34]
  IC50: > 10 µM
[2]; [35]
  IC50: 1 to 10 µM
[2]; [36]
  IC50: > 10 µM
[2]; [37]
  IC50: 1 to 10 µM
[2]; [38]
  IC50: 1 to 10 µM
[2]; [39]
  IC50: 0.25 to 1 µM
[2]; [40]
  IC50: 1 to 10 µM
[2]; [41]
  IC50: 1 to 10 µM
[2]; [42]
  IC50: 0.25 to 1 µM
[2]; [43]
  IC50: 1 to 10 µM
[2]; [44]
  IC50: 1 to 10 µM
[2]; [45]
  IC50: 1 to 10 µM
[2]; [46]
  IC50: > 10 µM
[2]; [47]
  IC50: > 10 µM
[2]; [48]
  IC50: 1 to 10 µM
[2]; [49]
  IC50: 1 to 10 µM
[2]; [50]
  IC50: 1 to 10 µM
